According to PubChem BioAssay AID330 (DTP/NCI, 2004):
Several values for one entry are separate records, joined by “and”; a condition that tells them apart may be missing. Equal entries are not always repeated. Toxic doses and inconclusive results are not listed. The calls were made as follows: active = survival T/C of 150% or more; inactive = T/C below 125% in these data.

Tested on: P388 leukemia ip, CD2F1 mice, survival T/C
Experiment: NCI In Vivo Anticancer Drug Screen. Data for tumor model P388 Leukemia (intraperitoneal) in CD2F1 (CDF1) mice
Details: endpoint: median survival time, higher = longer survival
Summary of the method: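 Mice carrying the transplanted tumor received test compound or vehicle. Survival was recorded in each group, and the value is the treated-group measurement divided by that of the vehicle-treated control group.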

[1] = dose: 100.0 mg/kg/injection, schedule: Q04DX002 (ip), vehicle: saline with Tween-80
[2] = dose: 60.0 mg/kg/injection, schedule: Q01DX005 (ip), vehicle: saline with Tween-80
[3] = dose: 50.0 mg/kg/injection, schedule: Q01DX009 (ip), vehicle: Klucel (hydroxypropylcellulose) (HPC)
[4] = dose: 100.0 mg/kg/injection, schedule: Q01DX009 (ip), vehicle: Klucel (hydroxypropylcellulose) (HPC)
[5] = dose: 200.0 mg/kg/injection, schedule: Q01DX009 (ip), vehicle: Klucel (hydroxypropylcellulose) (HPC)

Measured: T/C

COc1cc(Br)cc(C(=O)N2CCc3ccccc32)c1OC
inactive: dose: 25.0 mg/kg/injection, schedule: Q01DX009 (ip), vehicle: other 99 % of control | dose: 50.0 mg/kg/injection, schedule: Q01DX009 (ip), vehicle: other 96 % of control | dose: 100.0 mg/kg/injection, schedule: Q01DX009 (ip), vehicle: other 96 % of control | dose: 200.0 mg/kg/injection, schedule: Q01DX009 (ip), vehicle: other 96 % of control | dose: 400.0 mg/kg/injection, schedule: Q01DX009 (ip), vehicle: other 87 % of control

COC1/C=C\C=C(/C)C(=O)NC2=CC(=O)C(NC3CC3)=C(CC(C)CC(OC)C(O)C(C)/C=C(/C)C1OC(N)=O)C2=O (stereo not given)
inactive: dose: 12.5 mg/kg/injection, schedule: Q04DX002 (ip), vehicle: saline with Tween-80 107 % of control | dose: 18.75 mg/kg/injection, schedule: Q04DX002 (ip), vehicle: saline with Tween-80 108 % of control | dose: 25.0 mg/kg/injection, schedule: Q04DX002 (ip), vehicle: saline with Tween-80 107 % of control and 113 % of control | dose: 37.5 mg/kg/injection, schedule: Q04DX002 (ip), vehicle: saline with Tween-80 108 % of control | dose: 50.0 mg/kg/injection, schedule: Q04DX002 (ip), vehicle: saline with Tween-80 111 % of control and 113 % of control | dose: 75.0 mg/kg/injection, schedule: Q04DX002 (ip), vehicle: saline with Tween-80 117 % of control | [1] 120 % of control and 88 % of control

O=C1N=c2ccc(Br)cc2=C1c1sc(=O)n(Cc2nc3ccccc3[nH]2)c1O
inactive: dose: 100.0 mg/kg/injection, schedule: Q01DX001 (ip), vehicle: Klucel (hydroxypropylcellulose) (HPC) 95 % of control | dose: 200.0 mg/kg/injection, schedule: Q01DX001 (ip), vehicle: Klucel (hydroxypropylcellulose) (HPC) 93 % of control | dose: 400.0 mg/kg/injection, schedule: Q01DX001 (ip), vehicle: Klucel (hydroxypropylcellulose) (HPC) 90 % of control

CN(C)/N=C1/CCCCC1C(O)(c1ccccc1)c1ccccc1 (stereo not given)
inactive: [2] 97 % of control

O=C(CCn1c(CN2CCN(C/C=C/c3ccccc3)CC2)nc2ccccc21)c1ccccc1
inactive: [3] 104 % of control | [4] 100 % of control | [5] 111 % of control

CC(C)(C)c1cc(C(c2cc3c(cc2O)OCO3)N2CCOCC2)cc(C(C)(C)C)c1O (stereo not given)
inactive: [2] 102 % of control and 111 % of control and 112 % of control | dose: 120.0 mg/kg/injection, schedule: Q01DX005 (ip), vehicle: saline with Tween-80 105 % of control and 111 % of control and 115 % of control | dose: 240.0 mg/kg/injection, schedule: Q01DX005 (ip), vehicle: saline with Tween-80 104 % of control | dose: 480.0 mg/kg/injection, schedule: Q01DX005 (ip), vehicle: saline with Tween-80 123 % of control

CN(CCN(C)C(=S)Cl)C(=S)Cl
inactive: [3] 99 % of control | [4] 100 % of control | [5] 96 % of control

COC(=O)C1(C)C(=O)C=CC2(C)C1CC(OC(C)=O)C1(C)C2C(=O)C(OC(C)=O)C2(C)C(c3ccoc3)CC3OC321 (stereo not given)
inactive: dose: 0.75 mg/kg/injection, schedule: Q01DX005 (ip), vehicle: Klucel (hydroxypropylcellulose) (HPC) 99 % of control | dose: 1.5 mg/kg/injection, schedule: Q01DX005 (ip), vehicle: Klucel (hydroxypropylcellulose) (HPC) 101 % of control | dose: 3.0 mg/kg/injection, schedule: Q01DX005 (ip), vehicle: Klucel (hydroxypropylcellulose) (HPC) 97 % of control | dose: 6.0 mg/kg/injection, schedule: Q01DX005 (ip), vehicle: Klucel (hydroxypropylcellulose) (HPC) 97 % of control | dose: 12.0 mg/kg/injection, schedule: Q01DX005 (ip), vehicle: Klucel (hydroxypropylcellulose) (HPC) 98 % of control

COC1=C(N)C(=O)c2nc(-c3nc(C=O)c(C)c(-c4ccc(OC)c(OC)c4O)c3N)ccc2C1=O
inactive: dose: 0.18 mg/kg/injection, schedule: Q01DX009 (ip), vehicle: DMSO 116 % of control | dose: 0.3 mg/kg/injection, schedule: Q01DX009 (ip), vehicle: DMSO 115 % of control | dose: 0.3 mg/kg/injection, schedule: Q01DX009 (ip), vehicle: other 115 % of control | dose: 0.33 mg/kg/injection, schedule: Q01DX009 (ip), vehicle: DMSO 104 % of control | dose: 0.55 mg/kg/injection, schedule: Q01DX009 (ip), vehicle: DMSO 124 % of control | dose: 0.55 mg/kg/injection, schedule: Q01DX009 (ip), vehicle: other 124 % of control | dose: 0.62 mg/kg/injection, schedule: Q01DX009 (ip), vehicle: other 120 % of control | dose: 0.63 mg/kg/injection, schedule: Q01DX009 (ip), vehicle: DMSO 110 % of control | dose: 0.93 mg/kg/injection, schedule: Q01DX009 (ip), vehicle: DMSO 121 % of control | dose: 1.05 mg/kg/injection, schedule: Q01DX009 (ip), vehicle: DMSO 124 % of control | dose: 1.05 mg/kg/injection, schedule: Q01DX009 (ip), vehicle: other 124 % of control | dose: 1.24 mg/kg/injection, schedule: Q01DX009 (ip), vehicle: other 110 % of control | dose: 1.53 mg/kg/injection, schedule: Q01DX009 (ip), vehicle: DMSO 118 % of control | dose: 1.55 mg/kg/injection, schedule: Q01DX009 (ip), vehicle: DMSO 124 % of control | dose: 1.55 mg/kg/injection, schedule: Q01DX009 (ip), vehicle: other 99 % of control and 100 % of control and 124 % of control | dose: 2.05 mg/kg/injection, schedule: Q01DX009 (ip), vehicle: DMSO 110 % of control | dose: 2.05 mg/kg/injection, schedule: Q01DX009 (ip), vehicle: other 110 % of control | dose: 3.03 mg/kg/injection, schedule: Q01DX009 (ip), vehicle: DMSO 84 % of control | dose: 3.1 mg/kg/injection, schedule: Q01DX009 (ip), vehicle: other 121 % of control | dose: 4.96 mg/kg/injection, schedule: Q01DX009 (ip), vehicle: other 92 % of control and 93 % of control | dose: 6.03 mg/kg/injection, schedule: Q01DX009 (ip), vehicle: DMSO 94 % of control | dose: 6.05 mg/kg/injection, schedule: Q01DX009 (ip), vehicle: DMSO 124 % of control | dose: 6.05 mg/kg/injection, schedule: Q01DX009 (ip), vehicle: other 124 % of control | dose: 6.2 mg/kg/injection, schedule: Q01DX009 (ip), vehicle: other 110 % of control | dose: 12.4 mg/kg/injection, schedule: Q01DX009 (ip), vehicle: other 56 % of control

CCOC(=O)C(NC(=O)OCc1ccccc1)C(O)C#C[Si](C)(C)C (stereo not given)
inactive: [1] 95 % of control | dose: 200.0 mg/kg/injection, schedule: Q04DX002 (ip), vehicle: saline with Tween-80 95 % of control | dose: 400.0 mg/kg/injection, schedule: Q04DX002 (ip), vehicle: saline with Tween-80 90 % of control

CCCCC1(CCCCCCCCC(=O)OCC)OCCO1
inactive: dose: 50.0 mg/kg/injection, schedule: Q01DX005 (ip), vehicle: Klucel (hydroxypropylcellulose) (HPC) 96 % of control | dose: 100.0 mg/kg/injection, schedule: Q01DX005 (ip), vehicle: Klucel (hydroxypropylcellulose) (HPC) 97 % of control | dose: 200.0 mg/kg/injection, schedule: Q01DX005 (ip), vehicle: Klucel (hydroxypropylcellulose) (HPC) 97 % of control

NC(=O)c1nn[nH]n1
inactive: [3] 97 % of control | [4] 100 % of control

C/C(=N\N=C(\N)N1CCOCC1)c1ccc2c(c1)Cc1ccccc1-2
inactive: [1] 101 % of control

COc1ccc(C(OC)c2cc(C(C)(C)C)c(O)c(C(C)(C)C)c2)cc1 (stereo not given)
inactive: dose: 50.0 mg/kg/injection, schedule: Q01DX005 (ip), vehicle: saline with Tween-80 102 % of control | dose: 100.0 mg/kg/injection, schedule: Q01DX005 (ip), vehicle: saline with Tween-80 109 % of control | dose: 200.0 mg/kg/injection, schedule: Q01DX005 (ip), vehicle: saline with Tween-80 112 % of control

C=CCCN(c1ccc(C(=O)OCC)cc1)S(=O)(=O)c1ccc(C)cc1
inactive: dose: 25.0 mg/kg/injection, schedule: Q01DX009 (ip), vehicle: saline with Tween-80 100 % of control | dose: 50.0 mg/kg/injection, schedule: Q01DX009 (ip), vehicle: saline with Tween-80 110 % of control | dose: 100.0 mg/kg/injection, schedule: Q01DX009 (ip), vehicle: saline with Tween-80 100 % of control | dose: 200.0 mg/kg/injection, schedule: Q01DX009 (ip), vehicle: saline with Tween-80 108 % of control

CC1(C)OCC(C2NC2C2COC(C)(C)O2)O1 (stereo not given)
inactive: dose: 50.0 mg/kg/injection, schedule: Q01DX009 (ip), vehicle: saline 108 % of control | dose: 100.0 mg/kg/injection, schedule: Q01DX009 (ip), vehicle: saline 110 % of control | dose: 200.0 mg/kg/injection, schedule: Q01DX009 (ip), vehicle: saline 104 % of control
